# Laboratory results taken from patent publication US20200332251A1, “PERFUSION MEDIUM” (Boehringer Ingelheim International GmbH, priority 2017, published 2020).
# Tests used:
# Format in all cases: cell-based, Chinese Hamster
# [1] = system: CHO perfusion cell culture; experiment: cells; details: for increase of the cell specific productivity: relative to cell culture without the additive; for cell growth (VCD) relative to normal perfusion media / specific productivity relative to normal perfusion media: each concentration (arachidonic acid 500 μM; PGE2 0.001, 10, 20, 60 μM), before day 6
# Description: (§1) The below examples, unless specified otherwise, were carried out using the following generalized protocol and apparatus for perfusion cell culture. Two different formats of perfusion culture process were employed for the experiments described in the examples. One is executed in a bioreactor model and the other is in a deep-well plate model.
# (§2) The deep-well plate model is carried out using 24 deep-well plates with an 8 day run duration. A starting cell density of 20e^6 cells/ml is targeted for deep well plate model work. The working volume per well is 3 ml and cells are grown at 33° C. with 5% CO2, 80% humidity, and 200 rpm in an incubator with a 5.0 cm orbit diameter. Medium exchanges are performed daily by centrifuging the plate at 1800 rpm for 5 mins, removing supernatant, and re-suspending the cells in fresh media at 70% volume per day (VVD) exchange rate. Further details of the setup is described by Lin et al. (Biotechnol. Prog., 2017, Vol. 33, No. 4).
# In this example, the deep-well plate model is used.
# Linoleic acid at various concentrations 500 μM, 900 μM, 1350 μM and 1800 μM was added to the cell culture media and the effects on (A) viable cell density (e^5 cells/nil), (B) percent (%) cell viability and (C) specific productivity (qp) were determined.
# In this example, the deep-well plate model is used. This example analyzes the effect of arachidonic acid when added to perfusion medium.
# The effect of arachidonic acid on (A) viable cell density (e^5 cells/nil), (B) percent (%) cell viability and (C) specific productivity (qp) of the cell culture was determined.
# In this example, the deep-well plate model is used. This experiment analyzes the effect of prostaglandin E2 when added to perfusion medium.
# At each concentration, the VCD and specific productivity (i.e., specific titer), the growth was suppressed cell growth and the specific productivity was increased before day 6 relative to the cell culture in normal perfusion media.
# [2] = system: CHO perfusion cell culture; experiment: Deep-well plate perfusion cell culture model, acetylsalicylic acid (ASA) in perfusion media with 500 μM arachidonic acid
# Description: as §1, §2
# In this example, the deep-well plate model is used. ASA is an inhibitor of COX-1 and COX-2, which are the metabolic enzymes which convert arachidonic acid to synthesize prostaglandin E2 (See FIG. 2). This experiment therefore analyses the effect of acetylsalicylic acid (ASA) when added to perfusion medium.
# The data provide evidence that prostaglandin E2 is effective in triggering cell growth suppression and in increasing cell specific productivity.
# [3] = system: CHO perfusion cell culture; experiment: Deep-well plate perfusion cell culture model, arachidonic acid added to k-pop (high potassium) perfusion medium; details: 150 μM to 500 μM in medium with about 34 mM sodium and 94 mM potassium; beyond the effect of high potassium alone
# Description: as §1
# as §2, with “4). […]” for “4).”
# The effect of concentrations of arachidonic acid added at 150 μM, 300 μM and 500 μM to a cell culture media having a sodium concentration of approximately 34 mM and a preexisting high potassium concentration of approximately 94 mM, i.e., a low sodium-to-potassium ratio of about 0.4, was determined with respect to (A) viable cell density (e^5 cells/nil), (B) percent (%) cell viability and (C) specific productivity (qp) was determined.
# [4] = Cricetulus griseus, read-out: decrease of the VCD (viable cell density)
# [5] = added to perfusion medium, 500-1800 μM (Example 2, FIG. 3)
# [6] = 500 μM added in the normal perfusion media (Example 3, FIG. 4)
# [7] = ASA in perfusion media with 500 μM arachidonic acid
smiles,measurement,setting,value
CCCCC[C@H](O)/C=C/[C@H]1[C@H](O)CC(=O)[C@@H]1C/C=C\CCCC(=O)O [prostaglandin E2],increase of the cell specific productivity,[1]; 0.001 μM in growth medium,up to 13.5%
same,increase of the cell specific productivity,[1]; 10 μM in growth medium,up to 34.4%
same,increase of the cell specific productivity,[1]; 20 μM in growth medium,up to 31%
same,increase of the cell specific productivity,[1]; 60 μM in growth medium,up to 31%
same,cell growth (VCD) relative to normal perfusion media,[1],suppressed
same,specific productivity relative to normal perfusion media,[1],increased
CCCCC/C=C\C/C=C\CCCCCCCC(=O)O [linoleic acid],increase of the cell specific productivity,[1]; 500 μM in growth medium,up to 10%
same,increase of the cell specific productivity,[1]; 900 μM in growth medium,up to 14%
same,increase of the cell specific productivity,[1]; 1350 μM in growth medium,up to 14%
same,increase of the cell specific productivity,[1]; 1800 μM in growth medium,up to 30%
same,"viable cell density, viability and specific productivity relative to the normal perfusion media","[1]; 1800 μM, similar to arachidonic acid at 500 μM",most significant difference
same,cell specific productivity relative to normal perfusion media,"[1]; 500, 900 and 1350 μM, day 7, about the same at the three concentrations",significantly increased
same,cytotoxicity at 500 µM,[1]; [4],6 to 10%
same,cytotoxicity at 900 µM,[1]; [4],11 to 14%
same,cytotoxicity at 1350 µM,[1]; [4],11 to 25%
same,cytotoxicity at 1800 µM,[1]; [4],23 to 39.8%
same,cell growth,[1]; [5],suppresses cell growth
same,cell specific productivity (qp),[1]; [5],increases cell specific productivity
CCCCC/C=C\C/C=C\C/C=C\C/C=C\CCCC(=O)O [arachidonic acid],increase of cell specific productivity (qp),[1]; [6],≥ 46%
same,suppression of cell growth,[1]; [6],up to 31%
same,increase of the cell specific productivity,[1]; 500 μM in growth medium,up to 52%
same,cytotoxicity at 500 µM,[1]; [4],15 to 36%
same,cell growth (VCD) relative to normal perfusion media,[1],suppressed
same,specific productivity relative to normal perfusion media,[1],increased
same,suppressing cell growth and increasing productivity,[2]; 500 μM arachidonic acid when COX-1 and COX-2 are inhibited by ASA,no effect
same,cell growth,[3],decreases cell growth
same,cell specific productivity,[3],improves cell specific productivity
"CC(=O)Oc1ccccc1C(=O)O [ASA, acetylsalicylic acid]",specific productivity compared with normal perfusion medium,[2]; [7],same effect
same,viable cell density compared with normal perfusion medium,[2]; [7],higher
